Test system: murine fibrosarcomas (RIF-1 cells)
Experiment: Chemopotentiation of cisplatin by menadione: tumor growth delay of RIF-1 fibrosarcomas in C3H mice
Format: in vivo
Conditions: for Median (TVQT) / TVQT ± S.E. (mean tumor volume quadrupling time) / TVQT/CTVQT (ratio of treated over untreated control): intradermal RIF-1 tumors, female C3H mice; for Median (TVQT) / TVQT ± S.E. (mean tumor volume quadrupling time) / TVQT/CTVQT (ratio of treated over untreated control) / Delay: i.p., menadione 10 mg/kg, cisplatin 4 mg/kg, combination: menadione 30 min before cisplatin; for Delay: median treated minus median control, RIF-1 tumors, C3H mice
Experimental: Transplantable experimental murine fibrosarcomas (2×10^5 RIF-1 cells) were grown intradermally in the flanks of 3 month old female C3H mice (Charles River, Holister, Calif.). When the tumors reached a volume of approximately 100 mm^3, the mice were randomly assigned to each experimental group (4 mice per group). The experimental compositions were prepared as described in Table 1. Menadione was obtained from Sigma Chemical Co. (St. Louis, Mo.) and was made to the appropriate concentration in DMSO. Cisplatin (David Bull Laboratories- Mulgrave, Australia, lot. 5201844x) was made to the appropriate concentration in water for injection. The compositions were injected systemically (i.e., intraperitoneally, i.p.), in a volume of 100 microliters. For the treatment of group 3, menadione was injected 30 minutes prior to the injection of cisplatin. After treatment, the growth of the tumors was monitored three times per week by caliper measurements of three perpendicular diameters of the tumor and calculation of tumor volume from the formula: V=π/6×D1×D2×D3, where D1-3 are the diameters in mm along the three different perpendicular axes. The tumors were followed until they reached a size of four times their day zero treatment volume (TVQT), or up to 30 days after treatment, whichever came first. The data is expressed as the “tumor volume quadrupling time” (TVQT) mean and as the “delay.” Mean TVQT is the mean days required for individual tumors to grow to four times the tumor volume at the initial treatment day. The “delay” is the median of days required for a tumor to grow to four times the mean size of the treated group, minus the median of days required to grow to four times the mean size of the control group. The data is also expressed as the ratio of the tumor volume quadrupling time of the treated tumor over the untreated control group ([…]). Increasing values of this ratio indicate increased antitumor response.

Structure (SMILES)	antiproliferative activity of cisplatin when used with the chemopotentiator menadione (group 3 (menadione 10 mg/kg then cisplatin 4 mg/kg) versus either agent alone, more than additive effect)	Median (TVQT)	TVQT ± S.E. (mean tumor volume quadrupling time)	TVQT/CTVQT (ratio of treated over untreated control)	Delay
N.N.[Cl][Pt][Cl] [Cisplatin, cis-diamminedichloroplatinum II]	enhanced	8.3 days	8.4 ± 0.3 days	1.3	1.44 days
CC1=CC(=O)c2ccccc2C1=O [Menadione, 2-Methyl-1,4-Naphthoquinone]		7.5 days	7.0 ± 0.5 days	1.0	0.61 days

From patent US20020040011A1, “Naphthoquinone compositions and uses thereof” (priority 2000, published 2002)
